Assay results published in article PMC6123365, “Pharmacokinetics of Nuciferine and N-Nornuciferine, Two Major Alkaloids From Nelumbo nucifera Leaves, in Rat Plasma and the Brain” (Frontiers in Pharmacology, 2018).
Where two headings read alike, the source gives them in different places.

Columns and labels:
[1] = design: method as in earlier work; details: ref National Center for Biotechnology Information. PubChem Compound Database (CID = 10146; CID = 12313579); cited from earlier work
[2] = Brain pharmacokinetics (unbound, lateral ventricle) by microdialysis after i.v. dose of alkaloid fraction; format: in vivo, rats; details: rat brain lateral ventricle, mean ± SD, n = 6; for AUC(0-inf) / AUC(0-t) / MRT inf / half-life / Tmax / Cmax: Sprague-Dawley, brain lateral ventricle microdialysate (unbound), iv; for half-life: read-out: t1/2, λz (converted); for Tmax / Cmax: unbound; for Tmax: i.v. alkaloid fraction 20 mg/kg (NF 9, N-NF 4 mg/kg)
Experimental: The microdialysis experiment was conducted as previously described ([Xiao et al., 2016]). Briefly, the rats were anesthetized with an intraperitoneal dose of chloral hydrate 350 mg/kg, and a guide cannula [MAB6 (9).14.IC; MAB, Stockholm, Sweden] was stereotaxically implanted into the lateral ventricle of the brain at the following coordinates relative to bregma: anterior -0.9 mm; lateral +1.5 mm; and lowered 3.1 mm ventral to the dura surface. The guide cannula was secured in place with skull screws and dental cement. The rats were placed in separate cages for at least 3 days to recover. Then, a light surgery was performed as described above.
The probe was perfused with aCSF containing 5 mM β-CD at a flow rate of 2 μL/min. The brain microdialysis system consisted of a syringe microinfusion pump (CMA 400, CMA Microdialysis, Solna, Sweden), equipment for freely moving animals (CMA 120, CMA Microdialysis, Solna, Sweden), a microdialysis probe (MAB6.14.4; 4 mm, MAB, Stockholm, Sweden) and an automatic sample collector (CMA 470, CMA Microdialysis, Solna, Sweden) set at 4°C. The rat was allowed to equilibrate for 1 h prior to the initiation of sample collection. After blank dialysate samples were collected, the animal received an i.v. dose of the alkaloid fraction at 20 mg/kg by injection through the jugular vein. An 8 min delay was incorporated into the sampling procedure to compensate for the dead volume between the active membrane and the sample collection outlet. The dialysates were collected every 20 min time interval for 2 h and then every 30 min time interval for 4 h. The collected samples were kept at 4°C and analyzed within 24 h.
(§1) Pharmacokinetic parameters were estimated by the drug concentration in the plasma or brain versus time profiles using WinNonlin software (Pharsight Corporation, Mountain View, CA, United States, Version 2.1). A non-compartmental model was employed to calculate the following parameters: initial plasma concentration (C0) for the i.v. dose, plasma or brain maximum concentration (Cmax), time of maximum concentration (Tmax), terminal elimination half-life (t1/2, λz), area under the plasma concentration versus time curve from time zero to the last sampling time (AUC0-t) and zero to infinity (AUC0-inf), total body clearance (CL), volume of distribution (Vd, λz), and MRT. Absolute bioavailability (F) was calculated based on the plasma AUC0-inf obtained after oral and i.v. administration at the equivalent dose. The analyte concentration (Cf) in the brain lateral ventricle at each time point was calculated from its probe recovery (Rdial) and determined concentration (Cd) in dialysate by the equation, Cf = Cd/Rdial.

[3] = Plasma pharmacokinetics after single oral dose of lotus leaf alkaloid fraction; format: in vivo, SD rats; details: for bioavailability / Tmax / AUC(0-inf) / AUC(0-t) / Cmax / MRT inf / half-life: male; for bioavailability: SD, rat, from plasma AUC0-inf after oral (50 mg/kg) and i.v. (10 mg/kg) alkaloid fraction, read-out: F (absolute oral bioavailability); for Tmax / AUC(0-inf) / AUC(0-t) / Cmax / MRT inf / half-life / CL / Vd, λz: rat plasma, mean ± SD, n = 5; for Tmax: oral alkaloid fraction 50 mg/kg (NF 22.5, N-NF 10 mg/kg); for AUC(0-inf) / AUC(0-t) / Cmax / MRT inf / half-life / CL / Vd, λz: oral alkaloid fraction 50 mg/kg; for half-life: read-out: t1/2, λz (converted)
Experimental: (§2) The experimental animals (n = 10), male SD rats (200 ± 20 g), were supplied by the Institute of Laboratory Animal Sciences, Chinese Academy of Medical Sciences and Peking Union Medical College (Beijing, China). The animal experiments were approved by the Animal Ethics Committee at the Institute of Medicinal Plant Development, Chinese Academy of Medical Sciences. The day before the experiment, a light surgery was performed. A polyethylene catheter (0.50-mm ID, 1.00-mm OD, Portex Limited, Hythe, Kent, England) was cannulated into the right jugular vein under anesthesia with an intraperitoneal dose of chloral hydrate at 350 mg/kg. After surgery, the rats were placed individually in cages and allowed to recover for at least 12 h. The rats were fasted overnight with free access to water prior to drug administration.
(§3) Rats were randomly divided into two groups (five per group). Group 1 was treated with the alkaloid fraction dissolved in 0.03% HCl at a single oral dose of 50 mg/kg by gastric gavage. Group 2 was treated with the alkaloid fraction dissolved in normal saline solution containing 0.03% HCl at an i.v. dose of 10 mg/kg by rapid injection via the catheter. After i.v. administration, 0.2 mL of heparinized saline was injected into the catheter for cleaning.
(§4) Blood samples (0.2 mL) were collected from the catheter at multiple intervals (0.08, 0.17, 0.25, 0.50, 1, 2, 4, 6, 8, 12, and 16 h) after dosing. Samples were placed into a heparinized centrifuge tube and centrifuged at 3,000 × g and 4°C for 3 min for plasma separation. An aliquot (0.1 mL) of each separated plasma sample was immediately analyzed or stored at -20°C until assay. After each blood collection, 0.2 mL of normal saline containing 20 units of heparin was injected into the catheter to flush the catheter and prevent coagulation.
(§5) An aliquot of 100 μL of plasma was vortexed with 20 μL of IS (10 μg/mL) and then mixed with 1.5 mL of ethyl acetate for 10 min. Following centrifugation at 8,000 × g for 5 min, the organic phase was completely transferred to a glass tube and concentrated by a gentle nitrogen stream at 40°C. Subsequently, the residue was reconstituted in 150 μL of 80% methanol. Then, the solution was transferred into a small clean tube and centrifuged for 5 min at 16,000 × g. Finally, 10 μL of the supernatant was directly injected into the UPLC system for analysis.
as §1

CYP2D6 isoenzyme = system: CYP2D6 isoenzyme; design: method as in Ye et al., 2014; details: competitive manner; ref Ye et al., 2014; cited from earlier work
[4] = Plasma pharmacokinetics after single i.v. dose of lotus leaf alkaloid fraction; format: in vivo, SD rats; details: male, iv, rat plasma, i.v. alkaloid fraction 10 mg/kg, mean ± SD, n = 5; for Vd: read-out: Vd, λz; for half-life: read-out: t1/2, λz (converted)
Experimental: as §2, §3, §4, §5, §1

[5] = rats, cited from earlier work
[6] = i.v. alkaloid fraction 20 mg/kg

| Compound | LogP [1] | AUC(0-inf) [2, 6] [ng·h/mL] | AUC(0-t) [2, 6] [ng·h/mL] | MRT inf [2, 6] [h] | half-life [2, 6] [h] | Tmax [2] [h] | Cmax [2, 6] [ng/mL] | CL/F [2, 6] [mL/min/kg] | bioavailability [3] [%] | Tmax [3] [h] | AUC(0-inf) [3] [ng·h/mL] | AUC(0-t) [3] [ng·h/mL] | Cmax [3] [ng/mL] | MRT inf [3] [h] | half-life [3] [h] | CL [3] [mL/min/kg] | Vd, λz [3] [L/kg] | inhibition of CYP2D6 isoenzyme activity (CYP2D6 isoenzyme) | AUC(0-inf) [4] [ng·h/mL] | AUC(0-t) [4] [ng·h/mL] | further results |
| --- | --- | --- | --- | --- | --- | --- | --- | --- | --- | --- | --- | --- | --- | --- | --- | --- | --- | --- | --- | --- | --- |
| COc1cc2c3c(c1OC)-c1ccccc1CC3NCC2 (centres unmarked) [N-NF, N-nornuciferine] | 3 | 500 ± 60 | 460 ± 70 | 2.98 ± 0.49 | 1.39 ± 0.68 | 1.22 ± 0.27 | 160 ± 30 | 135 ± 16.7 | 79.9 | 1.65 ± 0.78 | 3400 ± 700 | 3320 ± 670 | 570 ± 100 | 4.71 ± 0.72 | 2.94 ± 0.4 | 40.7 ± 9.33 | 10.34 ± 2.64 | significantly inhibit | 850 ± 280 | 740 ± 200 | C0 [4]: 690 ± 560 ng/mL; MRT inf [4]: 4.94 ± 1.83 h; clearance [4]: 43.5 mL/min/kg; Vd [4]: 15.2 ± 2.17 L/kg; half-life [4]: 3.84 ± 1.27 h |
| COc1cc2c3c(c1OC)-c1ccccc1C[C@H]3N(C)CC2 [NF, nuciferine] | 3.4 | 830 ± 130 | 780 ± 130 | 2.46 ± 0.35 | 1.24 ± 0.33 | 0.89 ± 0.17 | 320 ± 70 | 184.7 ± 30 | 58.1 | 0.9 ± 0.72 | 6200 ± 1330 | 6130 ± 1350 | 1710 ± 450 | 3.35 ± 0.8 | 2.48 ± 0.66 | 36.5 ± 7.5 | 7.87 ± 2.84 | significantly inhibit | 2130 ± 400 | 2090 ± 380 | Vd, λz/F [2, 6]: 19.78 ± 5.79 L/kg; C0 [4]: 2580 ± 890 ng/mL; MRT inf [4]: 2.07 ± 0.74 h; clearance [4]: 35.8 mL/min/kg; Vd [4]: 9.48 ± 3.17 L/kg; half-life [4]: 2.09 ± 0.64 h; oral bioavailability ([5]; oral administration of pure NF, LC-MS/MS, ref Xie et al., 2010): 69.56%; oral bioavailability ([5]; pure NF, ref Gu et al., 2014): 3.9% |
